Experimental data reported in the CheMixHub viscosity set.

Test: xn = mol fraction of the nth substance listed

C1CCC2=[NH+]CCCN2CC1.c1nc[n-]n1 + CO
303.15 K, 100 kPa
Details	viscosity [mPa·s]
x1 = 0.1001	5.23
x1 = 0.2	8.57
x1 = 0.2999	24.53
x1 = 0.4003	57.03
x1 = 0.4989	104.5
x1 = 0.6002	205.4
x1 = 0.7008	366.4
x1 = 0.7993	555.9
x1 = 0.9002	882.9

C=CC(=O)OC + CO
viscosity [mPa·s], 101.33 kPa
Details	308.15 K	318.15 K
x1 = 0.0546	0.464	0.419
x1 = 0.157	0.443	0.412
x1 = 0.2569	0.426	0.404
x1 = 0.3537	0.413	0.397
x1 = 0.453	0.403	0.388
x1 = 0.501	0.399	0.384
x1 = 0.5588	0.394	0.379
x1 = 0.655	0.39	0.369
x1 = 0.7566	0.387	0.359
x1 = 0.8561	0.387	0.349
x1 = 0.9556	0.389	0.338

CCCCCC + CO
298.15 K, 101.33 kPa
Details	viscosity [mPa·s]
x2 = 0.0532	0.313
x2 = 0.0601	0.313
x2 = 0.138	0.317
x2 = 0.154	0.319
x2 = 0.2491	0.334
x2 = 0.8139	0.49
x2 = 0.8529	0.502
x2 = 0.8644	0.506
x2 = 0.9199	0.525
x2 = 0.9494	0.539
x2 = 0.9771	0.547

CCCCCOC(C)=O + CO
303.15 K, 101.3 kPa
Details	viscosity [mPa·s]
x1 = 0.0524	0.537
x1 = 0.1018	0.561
x1 = 0.1038	0.533
x1 = 0.1608	0.547
x1 = 0.1934	0.608
x1 = 0.3024	0.652
x1 = 0.4255	0.695
x1 = 0.5168	0.719
x1 = 0.5951	0.733
x1 = 0.6976	0.753
x1 = 0.791	0.775
x1 = 0.8949	0.794

CCOC(=O)CC + CO
303.15 K, 101.33 kPa
Details	viscosity [mPa·s]
x1 = 0.1102	0.524
x1 = 0.1551	0.525
x1 = 0.2735	0.526
x1 = 0.3189	0.527
x1 = 0.3721	0.528
x1 = 0.4967	0.527
x1 = 0.5395	0.524
x1 = 0.613	0.521
x1 = 0.6625	0.518
x1 = 0.7231	0.514
x1 = 0.8087	0.508
x1 = 0.9141	0.501

O=C1CCCN1C1CCCCC1 + CO
298.15 K, 100 kPa
Details	viscosity [mPa·s]
x1 = 0.0094	0.589
x1 = 0.0192	0.625
x1 = 0.0288	0.657
x1 = 0.0387	0.69
x1 = 0.0495	0.727
x1 = 0.053	0.743
x1 = 0.067	0.804
x1 = 0.0764	0.832
x1 = 0.0858	0.866
x1 = 0.0883	0.874
x1 = 0.094	0.91
x1 = 0.191	1.366
x1 = 0.2811	1.92
x1 = 0.3806	2.649
x1 = 0.48	3.553
x1 = 0.5758	4.526
x1 = 0.6836	5.807
x1 = 0.7845	7.171
x1 = 0.8973	8.652
x1 = 0.9035	8.749
x1 = 0.9182	8.971
x1 = 0.9294	9.118
x1 = 0.9448	9.356
x1 = 0.9517	9.496
x1 = 0.965	9.7
x1 = 0.9749	9.843
x2 = 0.0157	10

O=C1OCCO1 + COC(=O)OC
viscosity [mPa·s], 101.3 kPa
Details	x2 = 0.0802	x2 = 0.166	x2 = 0.2441	x2 = 0.3467	x2 = 0.4421	x2 = 0.5442	x2 = 0.6512	x2 = 0.761	x2 = 0.8513
298.15 K	2.043	1.83	1.656	1.452	1.285	1.127	0.983	0.854	0.761
313.15 K	1.688	1.506	1.357	1.184	1.042	0.91	0.789	0.682	0.604

CC(C)CO + COC(C)(C)C
298.15 K, 101 kPa
Details	viscosity [mPa·s]
x2 = 0.1007	2.39
x2 = 0.2009	1.72
x2 = 0.2996	1.27
x2 = 0.3951	0.987
x2 = 0.502	0.776
x2 = 0.6038	0.637
x2 = 0.7002	0.536
x2 = 0.8022	0.449
x2 = 0.9008	0.385

CC1=CCC2CC1C2(C)C (configuration not stated) + COC(C)(C)C
298.15 K, 101.33 kPa
Details	viscosity [mPa·s]
x2 = 0.0598	1.196
x2 = 0.128	1.091
x2 = 0.2151	0.9713
x2 = 0.357	0.8048
x2 = 0.4839	0.6762
x2 = 0.5691	0.603
x2 = 0.6514	0.5379
x2 = 0.7236	0.4866
x2 = 0.8254	0.4221
x2 = 0.9034	0.379
x2 = 0.9583	0.3576

CCCCCOC(C)=O + COc1ccccc1
Details	viscosity [mPa·s]
298.15 K, 101 kPa, x2 = 0.5	0.8265
